In patent US20020065227A1, “Charged compounds comprising a nucleic acid binding moiety and uses therefor” (priority 2000, published 2002):
≈ marks a conversion by molar mass, not a printed value.

Columns and labels:
[1] = test system: AGTACT; experiment: DNase I footprint titration, AGTACT site; format: binding; conditions: equilibrium association constant Ka; pH 7.0, 22° C.
[2] = test system: ACTACT; experiment: DNase I footprint titration, ACTACT site; format: binding; conditions: equilibrium association constant Ka; pH 7.0, 22° C.
[3] = test system: AATACT; experiment: DNase I footprint titration, AATACT site; format: binding; conditions: equilibrium association constant Ka; pH 7.0, 22° C.
[4] = test system: ATTACT; experiment: DNase I footprint titration, ATTACT site; format: binding; conditions: equilibrium association constant Ka; pH 7.0, 22° C.
[5] = test system: dsDNA restriction fragment; experiment: dsDNA binding, DNase I footprinting on restriction fragment; conditions: in words
[6] = test system: Candida parapsilosis (10232); experiment: MIC, antifungal assay; format: cell-based; conditions: Candida parapsilosis (10232)
[7] = test system: Bacillus subtilis (6633); experiment: MIC, NCCLS broth microdilution; format: cell-based; conditions: Bacillus subtilis (6633)
[8] = test system: Cryptococcus neoformans (90112); experiment: MIC, antifungal assay; format: cell-based; conditions: Cryptococcus neoformans (90112)
[9] = test system: Enterococcus faecalis (29212); experiment: MIC, NCCLS broth microdilution; format: cell-based; conditions: Enterococcus faecalis (29212)
[10] = test system: Streptococcus pyogenes (49339); experiment: MIC, NCCLS broth microdilution; format: cell-based; conditions: Streptococcus pyogenes (49339); Table Ia: Streptococcus Group A(49339)
[11] = test system: Candida albicans (38247) (Polyene resistant); experiment: MIC, antifungal assay; format: cell-based
[12] = test system: Enterococcus faecium (51559) (vacomycin resistant); experiment: MIC, NCCLS broth microdilution; format: cell-based; conditions: Enterococcus faecium (51559), vancomycin resistant
[13] = test system: Corynebacterium Group A (49676); experiment: MIC, NCCLS broth microdilution; format: cell-based; conditions: Corynebacterium Group A (49676)
[14] = test system: Candida albicans (90028); experiment: MIC, antifungal assay; format: cell-based
[15] = test system: Bacillus cereus (11778); experiment: MIC, NCCLS broth microdilution; format: cell-based; conditions: Bacillus cereus (11778)
[16] = test system: Candida tropicalis (13803); experiment: MIC, antifungal assay; format: cell-based; conditions: Candida tropicalis (13803)
[17] = test system: Esherichia coli (25922); experiment: MIC, NCCLS broth microdilution; format: cell-based, Escherichia coli; conditions: Escherichia coli (25922)
[18] = test system: Pseudomona aeruginosa (27853); experiment: MIC, NCCLS broth microdilution; format: cell-based; conditions: Pseudomona aeruginosa (27853)
[19] = test system: Streptococcus pneumoniae (49619); experiment: MIC, NCCLS broth microdilution; format: cell-based; conditions: Streptococcus pneumoniae (49619)
[20] = test system: Propionibacterium acnes (33179); experiment: MIC, NCCLS broth microdilution; format: cell-based; conditions: anaerobe
[21] = test system: Staphylococcus epidermidis (12228); experiment: MIC, NCCLS broth microdilution; format: cell-based; conditions: Staphylococcus epidermidis (12228)
[22] = test system: Clostridium perfringens (13124); experiment: microbe, parasite or virus in culture; format: cell-based
[23] = test system: Staphylococcus aureus (29213); experiment: MIC, NCCLS broth microdilution; format: cell-based; conditions: Staphylococcus aureus (29213)
[24] = test system: Staphylococcus aureus (33591) (methicillin resistant); experiment: MIC, NCCLS broth microdilution; format: cell-based; conditions: Staphylococcus aureus (33591), methicillin resistant (MRSA)
[25] = test system: Peptostreptococcus asaccharolytics (29743); experiment: MIC, NCCLS broth microdilution; format: cell-based; conditions: anaerobe
[26] = test system: Micrococcus luteus (381); experiment: MIC, NCCLS broth microdilution; format: cell-based
[27] = test system: different species of bacteria and fungi; conditions: in words

CN(C)CCCNC(=O)CCNC(=O)c1cc(NC(=O)c2cc(NC(=O)c3cc(NC(=O)c4nc(NC(=O)CCCNC(=O)c5cc(NC(=O)c6cc(NC(=O)c7nsc(Cl)c7Cl)cn6C)cn5C)cn4C)cn3C)cn2C)cn1C [VI-c]
Binding Constant, sequence AGTACT [1]: 2e+08 M⁻¹
Binding Constant, sequence ACTACT [2]: 1e+08 M⁻¹
Binding Constant, sequence AATACT [3]: 1e+09 M⁻¹
Binding Constant, sequence ATTACT [4]: 1e+10 M⁻¹
Sequence preference of binding [5]: bind ATTACT, and AATACT preferentially to ACTACT and AGTACT

Cn1cc(NC(=O)c2cc(NC(=O)c3cc(NC=O)cn3C)cn2C)cc1C(=O)NCCC(=N)N [Distamycin, distamycin, reference compound]
MIC [6]: >128 µg/mL
MIC [7]: 64 to 128 µg/mL
MIC [8]: >128 µg/mL
MIC [9]: 16 to 32 µg/mL
MIC [10]: 32 µg/mL (≈ 66.5 µM)
MIC [11]: >128 µg/mL
MIC [12]: 128 µg/mL (≈ 266 µM)
MIC [13]: 16 µg/mL (≈ 33.2 µM)
MIC [14]: >128 µg/mL
MIC [15]: 8 µg/mL (≈ 16.6 µM)
MIC [16]: >128 µg/mL
MIC [17]: >128 µg/mL
MIC [18]: >128 µg/mL
MIC [19]: 16 µg/mL (≈ 33.2 µM)
MIC [20]: 16 µg/mL (≈ 33.2 µM)
MIC [21]: 64 µg/mL (≈ 133 µM)
MIC [22]: 8 µg/mL (≈ 16.6 µM)
MIC [23]: 32 µg/mL (≈ 66.5 µM)
MIC [24]: 16 µg/mL (≈ 33.2 µM)
MIC [25]: 8 µg/mL (≈ 16.6 µM)
MIC [26]: 32 µg/mL (≈ 66.5 µM)

CN(C)CCCNC(=O)CCNC(=O)c1cc(NC(=O)c2cc(NC(=O)c3nsc(Cl)c3Cl)cn2C)cn1C [V-cc]
Anti-pathogenic properties [27]: significant anti-pathogenic properties
dsDNA binding [5]: good binder for dsDNA
